The target of test [1] is T1, human cytoplasmic domain of IGF-1R (Homo sapiens, UniProt P08069).
T1 construct: The human cytoplasmic domain of IGF-1R was cloned by fusion with glutathione S-transferase (GST); made in house; host or cells: SF21 insect cells (baculovirus, pFastBac-GST)
The test is described as follows: Kinase IGF-1R test: inhibition of autophosphorylation of the enzyme (HTRF). As to conditions: ATP 120 μM. The test is classed as biochemical. As for the experimental part: A) Experimental Protocol for the Kinase IGF-1R Test:
The inhibitory activity of the compounds on IGF1R is determined by measuring the inhibition of autophosphorylation of the enzyme using a time-resolved fluorescence test (HTRF). The human cytoplasmic domain of IGF-1R was cloned by fusion with glutathione S-transferase (GST) in the baculovirus expression vector pFastBac-GST. The protein is expressed in the SF21 cells and purified to about 80% homogeneity. For the enzymatic test, the test compound at 10 mM dissolved in DMSO is diluted in ⅓ steps in a 50 mM Hepes, pH 7.5, 5 mM MnCl2, 50 mM NaCl, 3% Glycerol, 0.025% Tween 20 buffer. To measure the inhibition, the successive dilutions of the compound are preincubated for 30 minutes and 90 minutes in the presence of 5 nM of enzyme, the final DMSO concentration not exceeding 1%. The enzymatic reaction is initiated to have a final ATP concentration of 120 μM, and is stopped after 5 minutes by addition of 100 mM Hepes, pH 7.0 buffer containing 0.4 M of potassium fluoride, 133 mM EDTA, 0.1% BSA, the XL665-labelled antibody anti-GST and the anti-phosphotyrosine antibody conjugated to europium cryptate Eu—K (Cis-Bio Int.). The characteristics of the two fluorophores, XL-665 and Eu—K, are available in G. Mathis et al., Anticancer Research, 1997, 17, pages 3011-3014. The energy transfer between the excited europium cryptate to the acceptor XL665 is proportional to the degree of autophosphorylation of IGF-1R. The specific long-lasting signal of XL-665 is measured in a GENios Pro TECAN plate counter. The inhibition of autophosphorylation of IGF-1R at time 30 minutes and 90 minutes with the test compounds of the invention is calculated relative to a 1% in DMSO control, whose activity is measured in the absence of compound. The curve representing the percentage of inhibition as a function of the log of the concentration is established to determine the concentration corresponding to 50% inhibition (IC50),

Another test concerns MEF-IGF1R cells. Put plainly: Proliferation/viability of MEF-IGF1R (Thymidine [14C] incorporation). The test is classed as cell-based. The conditions noted are these: rhIGF1 100 ng/mL, incubation 72 hours, read-out: Test C IC50. The method, then: C) Measurement of the Proliferation/Viability of MEF-IGF1R
Cell culture: the MEF-IGF1R cells (stable clone of cells transfected with the receptor hIGF-1R) are cultured at 37° C. under 5% CO2 in EMEM medium containing 10% FCS.
Test procedure: the cells are seeded at 5000 cells per well in 96-well Cytostar plates (Amersham) with 0.2 mL of EMEM culture medium at 37° C. for 18 hours. The cells are then washed twice with EMEM medium and left to culture without serum for 24 hours. The compounds are then added at various concentrations in the presence of rhIGF1 (100 ng/mL) and 0.1 μCi of Thymidine [^14C] (specific activity ˜50 mCi/mmol) to give 0.2 mL of volume per well. After incubation for 72 hours in the presence of the compound, at 37° C. under 5% CO2, the incorporation of Thymidine [^14C] is measured by counting the radioactivity on a Microbeta trilux counter (Perkin-Elmer). The IC50 is determined from 10 increasing concentrations of the compound.
(§1) (i) The tests are performed in duplicate and the mean of the two tests is calculated.
(§2) (ii) The value of the signal of the maximum response is calculated from the positive control: cells stimulated with IGF1 without compound.
(§3) (iii) Value of the signal of the minimum response is calculated from the negative control: cells not stimulated with IGF1 without compound.
(§4) (iv) By using these values as maximum (100%) and minimum (0%), respectively, the data were normalized so as to give a percentage of the maximum response.
(§5) (v) A curve of dose response is plotted and the IC50 (the concentration of which the compound induces a 50% decrease in the signal) of the compound is calculated by non-linear regression analysis.

Another test deals with IGF-1R in MCF7 cells (Homo sapiens, UniProt P08069). The test is described as follows: Autophosphorylation of IGF-1R in MCF7 cells after stimulation with IGF-1 (ELISA). Set-up: endogenous in cells; host or cells: MCF-7 cells. The conditions noted are these: MCF-7 cells, compound added one hour before stimulation with IGF1; read-out: Test B IC50. The test is classed as cell-based. As for the experimental part: B) Measurement of the Autophosphorylation of IGF-1R in MCF7 Cells after Stimulation with IGF-1
Cell Culturing and Execution of the Test:
The autophosphorylation of IGF1R in the IGF1-induced cells is evaluated by means of an ELISA technique (Enzyme Linked ImmunoSorbent Assay). The MCF-7 are seeded at 60 000 cells per well in 6-well plates and incubated at 37° C., 5% CO2 in medium containing 10% serum. After one night in 10% serum, the cells are deprived of serum for 24 hours. The compounds are added to the medium one hour before stimulation with IGF1. After 10 minutes of stimulation with IGF1, the cells are lysed with a buffer (Hepes 50 mM pH 7.6, Triton X100 1%, orthovanadate 2 mM, protease inhibitor cocktail). The cell lysates are incubated on a 96-well plate precoated with an anti-IGF1R antibody, followed by incubation with an anti-phosphotyrosine antibody coupled to the enzyme peroxidase. The level of peroxidase activity (measured by OD with a luminescent substrate) reflects the phosphorylation status of the receptor.
as §1, §2, §3, §4, §5
A general note: In an ELISA, binding on a coated surface is turned into a signal by an enzyme label.

The mark [2] stands for this setting: preincubation 30 minutes with 5 nM enzyme, read-out: Test A 30′ IC50.
[3] abbreviates: preincubation 90 minutes with 5 nM enzyme, read-out: Test A 90′ IC50.

Like-named read-outs stand apart in the source and are kept apart here.

T1 sequence (P08069 960-1367 limits assumed): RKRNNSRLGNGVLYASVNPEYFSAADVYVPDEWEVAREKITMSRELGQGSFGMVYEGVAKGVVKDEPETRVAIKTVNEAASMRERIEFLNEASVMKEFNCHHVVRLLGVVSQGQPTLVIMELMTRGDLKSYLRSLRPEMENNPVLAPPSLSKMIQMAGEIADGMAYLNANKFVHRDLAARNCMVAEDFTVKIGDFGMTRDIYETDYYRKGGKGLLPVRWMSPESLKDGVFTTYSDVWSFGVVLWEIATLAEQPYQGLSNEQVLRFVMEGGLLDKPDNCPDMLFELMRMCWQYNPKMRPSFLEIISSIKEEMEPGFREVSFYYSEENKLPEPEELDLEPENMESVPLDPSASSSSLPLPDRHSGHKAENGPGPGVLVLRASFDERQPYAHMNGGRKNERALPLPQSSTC
Sequence of IGF-1R in MCF7 cells (P08069 31-1367): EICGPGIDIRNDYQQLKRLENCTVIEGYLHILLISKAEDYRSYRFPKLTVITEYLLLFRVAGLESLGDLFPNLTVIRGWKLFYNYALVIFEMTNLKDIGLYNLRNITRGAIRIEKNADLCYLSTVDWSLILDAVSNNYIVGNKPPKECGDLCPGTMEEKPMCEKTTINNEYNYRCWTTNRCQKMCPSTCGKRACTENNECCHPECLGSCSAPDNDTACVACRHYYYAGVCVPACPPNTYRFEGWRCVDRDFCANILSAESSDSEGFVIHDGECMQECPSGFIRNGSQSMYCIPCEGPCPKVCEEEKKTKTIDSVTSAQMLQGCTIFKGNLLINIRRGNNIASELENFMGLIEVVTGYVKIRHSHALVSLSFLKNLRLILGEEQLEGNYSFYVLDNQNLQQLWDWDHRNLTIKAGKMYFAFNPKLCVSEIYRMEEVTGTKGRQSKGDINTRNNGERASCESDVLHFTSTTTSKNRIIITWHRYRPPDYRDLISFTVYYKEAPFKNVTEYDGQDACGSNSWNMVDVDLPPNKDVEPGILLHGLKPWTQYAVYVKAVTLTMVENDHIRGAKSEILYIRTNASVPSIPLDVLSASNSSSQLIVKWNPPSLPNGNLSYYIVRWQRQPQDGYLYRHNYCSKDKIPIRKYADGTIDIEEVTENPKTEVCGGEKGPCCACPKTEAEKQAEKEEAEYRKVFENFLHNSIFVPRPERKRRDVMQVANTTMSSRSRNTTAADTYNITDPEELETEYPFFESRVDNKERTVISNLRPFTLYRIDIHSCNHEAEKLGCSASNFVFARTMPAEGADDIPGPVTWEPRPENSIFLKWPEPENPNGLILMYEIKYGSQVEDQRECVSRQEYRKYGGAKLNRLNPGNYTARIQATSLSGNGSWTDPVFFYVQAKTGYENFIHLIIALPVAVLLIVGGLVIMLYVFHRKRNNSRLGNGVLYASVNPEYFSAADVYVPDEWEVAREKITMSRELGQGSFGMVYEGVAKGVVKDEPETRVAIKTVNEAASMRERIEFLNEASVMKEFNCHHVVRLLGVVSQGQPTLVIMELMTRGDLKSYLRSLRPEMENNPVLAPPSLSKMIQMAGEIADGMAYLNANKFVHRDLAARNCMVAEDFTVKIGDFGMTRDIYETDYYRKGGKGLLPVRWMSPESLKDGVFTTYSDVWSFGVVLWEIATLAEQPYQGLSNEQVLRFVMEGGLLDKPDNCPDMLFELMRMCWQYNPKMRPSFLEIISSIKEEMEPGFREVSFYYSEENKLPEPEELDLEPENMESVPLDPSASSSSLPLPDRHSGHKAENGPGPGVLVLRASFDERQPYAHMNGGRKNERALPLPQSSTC

As for `CC1(C)C(=O)N(c2ccc(SC(F)(F)F)cc2)C(=O)N1Cc1ccnc(NC(=O)NCCCN2CCCC2)c1` [Example 18, 1-{4-[(5,5-dimethyl-2,4-dioxo-3-{4-[(trifluoro-methyl)thio]phenyl}imidazolidin-1-yl)methyl]pyridin-2-yl}-3-(3-pyrrolidin-1-ylpropyl)urea], the IC50 (usually the concentration that inhibits the measured activity by half) in test [1] (setting [2]) is 10 to 100 nM; in test [1] (setting [3]), 10 to 100 nM; in the test with MEF-IGF1R cells, more than 100 nM; at IGF-1R in MCF7 cells, 10 to 100 nM.
Regarding `CC1(C)C(=O)N(c2ccc(SC(F)(F)F)cc2)C(=O)N1Cc1ccnc(NC(=O)NCCCCN2CCCC2)c1` [Example 21, 1-{4-[(5,5-dimethyl-2,4-dioxo-3-{4-[(trifluoro-methyl)thio]phenyl}imidazolidin-1-yl)methyl]pyridin-2-yl}-3-(4-pyrrolidin-1-ylbutyl)urea], the IC50 in test [1] (setting [2]) is 10 to 100 nM; in test [1] (setting [3]) it was 10 to 100 nM; with MEF-IGF1R cells, more than 100 nM; at IGF-1R in MCF7 cells, 10 to 100 nM.
Turning to `CC1(C)C(=O)N(c2ccc(SC(F)(F)F)cc2)C(=O)N1Cc1ccnc(NC(=O)N2CCCC2)c1` [Example 28, N-{4-[(5,5-dimethyl-2,4-dioxo-3-{4-[(trifluoromethyl)thio]phenyl}imidazolidin-1-yl)methyl]pyridin-2-yl}pyrrolidine-1-carboxamide], the IC50 was 10 to 100 nM in test [1] (setting [2]), 10 to 100 nM in test [1] (setting [3]), 10 to 100 nM with MEF-IGF1R cells and less than 10 nM at IGF-1R in MCF7 cells.
Take `CC1(C)C(=O)N(c2ccc(SC(F)(F)F)cc2)C(=O)N1Cc1ccnc(NC2CC2)c1` [Example 40D, 1-{[2-(cyclopropylamino)pyridin-4-yl]methyl}-5,5-dimethyl-3-{4-[(trifluoromethyl)thio]phenyl}imidazolidine-2,4-dione]: the IC50 is 10 to 100 nM in test [1] (setting [2]), 10 to 100 nM in test [1] (setting [3]), more than 100 nM in the test on MEF-IGF1R cells and 10 to 100 nM on IGF-1R in MCF7 cells.
On to `CC1(C)C(=O)N(c2ccc(SC(F)(F)F)cc2)C(=O)N1Cc1ccnc(NC(=O)NC2CCC2)c1` [Example 23, 1-cyclobutyl-3-{4-[(5,5-dimethyl-2,4-dioxo-3-{4-[(trifluoromethyl)thio]phenyl}imidazolidin-1-yl)methyl]pyridin-2-yl}urea], for which the IC50 (in test [1] (setting [2]); in test [1] (setting [3]); in the test on MEF-IGF1R cells; at IGF-1R in MCF7 cells) was 10 to 100 nM in each case.
For the compound `CC1(C)C(=O)N(c2ccc(SC(F)(F)F)cc2)C(=O)N1Cc1ccnc(NC(=O)NCCN2CCCC2)c1` [Example 20, 1-{4-[(5,5-dimethyl-2,4-dioxo-3-{4-[(trifluoro-methyl)thio]phenyl}imidazolidin-1-yl)methyl]pyridin-2-yl}-3-(2-pyrrolidin-1-ylethyl)urea], the IC50 (in test [1] (setting [2]); in test [1] (setting [3]); in the test on MEF-IGF1R cells; at IGF-1R in MCF7 cells) was more than 100 nM in each case.
Take `CCCN(C)C(=O)Nc1cc(CN2C(=O)N(c3ccc(SC(F)(F)F)cc3)C(=O)C2(C)C)ccn1` [Example 35, 3-{4-[(5,5-dimethyl-2,4-dioxo-3-{4-[(trifluoromethyl)thio]phenyl}imidazolidin-1-yl)methyl]pyridin-2-yl}-1-methyl-1-propylurea]: the IC50 (in test [1] (setting [2]); in test [1] (setting [3]); in the test with MEF-IGF1R cells; at IGF-1R in MCF7 cells) was 10 to 100 nM in each case.
On to `CCN(C)C(=O)Nc1cc(CN2C(=O)N(c3ccc(SC(F)(F)F)cc3)C(=O)C2(C)C)ccn1` [Example 34, 3-{4-[(5,5-dimethyl-2,4-dioxo-3-{4-[(trifluoro-methyl)thio]phenyl}imidazolidin-1-yl)methyl]pyridin-2-yl}-1-ethyl-1-methylurea], for which the IC50 (in test [1] (setting [2]); in test [1] (setting [3]); with MEF-IGF1R cells; at IGF-1R in MCF7 cells) was 10 to 100 nM in each case.
As to `CC1(C)C(=O)N(c2ccc(SC(F)(F)F)cc2)C(=O)N1Cc1ccnc(NC(=O)N2CCOCC2)c1` [Example 29, N-{4-[(5,5-dimethyl-2,4-dioxo-3-{4-[(trifluoro-methyl)thio]phenyl}imidazolidin-1-yl)methyl]pyridin-2-yl}morpholine-4-carboxamide], the IC50 (in test [1] (setting [2]); in test [1] (setting [3]); in the test on MEF-IGF1R cells; at IGF-1R in MCF7 cells) was 10 to 100 nM throughout.
In the case of `CC1(C)C(=O)N(c2ccc(SC(F)(F)F)cc2)C(=O)N1Cc1ccnc(NC(=O)N2CCCCC2)c1` [Example 2, N-{4-[(5,5-dimethyl-2,4-dioxo-3-{4-[(trifluoro-methyl)thio]phenyl}imidazolidin-1-yl)methyl]pyridin-2-yl}piperidine-1-carboxamide], the IC50 in test [1] (setting [2]) is 10 to 100 nM; in test [1] (setting [3]), 10 to 100 nM; in the test with MEF-IGF1R cells it was 10 to 100 nM; on IGF-1R in MCF7 cells it was less than 10 nM.
As to `CC1(C)C(=O)N(c2ccc(SC(F)(F)F)cc2)C(=O)N1Cc1ccnc(Nc2cc(Cl)ccc2Cl)c1` [Example 1, 1-({2-[(2,5-dichlorophenyl)amino]pyridin-4-yl}-methyl)-5,5-dimethyl-3-{4-[(trifluoromethyl)thio]phenyl}imidazolidine-2,4-dione], the IC50 was more than 100 nM in test [1] (setting [2]), more than 100 nM in test [1] (setting [3]), 10 to 100 nM in the test on MEF-IGF1R cells and more than 100 nM on IGF-1R in MCF7 cells.
As to `C[C@H](CO)Nc1nccc(CN2C(=O)N(c3ccc(S(=O)(=O)C(F)(F)F)cc3)C(=O)C2(C)C)n1` [Example 9, 1-[(2-{[(1R)-2-hydroxy-1-methylethyl]amino}-pyrimidin-4-yl)methyl]-5,5-dimethyl-3-{4-[(trifluoromethyl)-sulfonyl]phenyl}imidazolidine-2,4-dione], the IC50 in test [1] (setting [2]) was more than 100 nM; in test [1] (setting [3]) it was 10 to 100 nM; in the test with MEF-IGF1R cells it was 10 to 100 nM; on IGF-1R in MCF7 cells it was more than 100 nM.
With `CCOC(=O)Nc1cc(CN2C(=O)N(c3ccc(SC(F)(F)F)cc3)C(=O)C2(C)C)ccn1` [Example 18 Stage a), ethyl {4-[(5,5-dimethyl-2,4-dioxo-3-{4-[(trifluoromethyl)thio]phenyl}imidazolidin-1-yl)methyl]pyridin-2-yl}carbamate], the IC50 (in test [1] (setting [2]); in test [1] (setting [3]); in the test on MEF-IGF1R cells; on IGF-1R in MCF7 cells) was 10 to 100 nM throughout.

The values are drawn from patent US20090082329A1 (AVENTIS PHARMA S.A., priority 2006, published 2009).
